# Results as given in patent US7297481B2, “Detection of DNA damage” (ESA Biosciences, Inc., priority 2000, dated 2007).
# What was measured:
# [1] = system: C. Elegans; assay: 8OH2′dG production (DNA damage rate) in C. Elegans culture; format: in vivo
# Excerpt: 2. Relevant to the use of DNA damage rate measurements to cancer diagnosis I have observed that in C. Elegans culture there is a burst of 8OH2′dG production during the stage of rapid replication of the gonadal cells. In similar experiments I observed that a toxin (3 nitro propionic acid, 3NP) increased the rate of DNA damage during replication.
# 4. […] In rapid cell replication in C. Elegans, in 3NP insulted C.
# [2] = Dialysis studies of 8OH2′dG in extracellular matrix, probes in brain and muscle; format: in vivo; conditions: extracellular matrix vs free levels inside cellular material, brain and muscle of rat and mouse
# Excerpt: (§1) 1. Dialysis studies of 8OH2′dG in extracellular matrix with probes placed in brain and muscle of rat and mouse to measure the rate of production and excretion compared with the free levels inside the cellular material confirm that excretion from the cells is rapid. Similarly, comparison of CSF, Plasma and urinary levels of ca 1:10:2000 in ca 100 ALS and control subjects confirm that the rate of clearance from the body is high.
# [3] = Comparison of CSF, plasma, urine, saliva and sweat levels of 8OH2′dG; format: in vivo, human
# Excerpt: as §1
# [4] = Effect of simple antioxidants on levels of 8OH2′dG; format: in vivo
# [5] = Urine 8OH2′dG levels in individuals exposed to chemicals; format: in vivo, human; conditions: individuals exposed to the substance
compound,measurement,setting,value
"O=C(O)CC[N+](=O)[O-] [3NP, 3 nitro propionic acid]",rate of damage after the toxin was removed,[1]; after exposure,still maintained at a higher level
same,rate of DNA damage during replication,[1]; toxin exposure,increased
"Nc1nc2c(nc(O)n2[C@H]2C[C@H](O)[C@@H](CO)O2)c(=O)[nH]1 [8OH2′dG, 8 hydroxy 2′ deoxyguanosine]",excretion from the cells,[2],rapid
same,rate of clearance from the body,"[3]; CSF, plasma and urinary levels ca 1:10:2000 in ca 100 ALS and control subjects",high
same,mode of removal,"[3]; saliva or sweat vs. urine levels, plasma of kidney dialysis patients",urinary excretion is the primary mode of removal
O=C1O[C@H]([C@@H](O)CO)C(O)=C1O [Ascorbate],effect on the levels of 8OH2′dG,[4],no effect
Nc1ccccc1 [aniline],Urine levels of 8OH2′dG,[5],significantly increased
[As] [arsenic],Urine levels of 8OH2′dG,[5],significantly increased
Cc1ccccc1N [o-toluidine],Urine levels of 8OH2′dG,[5],significantly increased
Tocopherol,effect on the levels of 8OH2′dG,[4],no effect
